The text below walks through data of patent US12677832B2, “Oxadiazole compounds for controlling or preventing phytopathogenic fungi” (PI INDUSTRIES LTD., priority 2019, dated 2026).

Where only a bound is given, the exact number is not on record here.

One assay deals with Colletotrichum capsici. The assay can be described thus: Colletotrichum capsici (Anthracnose) radial growth on potato dextrose agar. The format is cell-based. Particulars: Colletotrichum truncatum, 168 h, radial growth after seven days compared to untreated control.
The next assay deals with Pyricularia oryzae. The assay can be described thus: microbe, parasite or virus in culture. It counts as cell-based. The note with it: 168 h, read-out: control.
The test system of another assay is Phakopsora pachyrhizi. The assay can be described thus: Phakopsora pachyrhizi Test in Soybean (preventive spray). The note with it: preventive spray on Soybean plants, inoculated one day after treatment, disease severity vs untreated control. It counts as in vivo.
A further assay relates to Alternaria solani. The assay can be described thus: Alternaria solani (Early Blight of Tomato/Potato) radial growth on potato dextrose agar. It counts as cell-based. Particulars: 168 h, radial growth after seven days compared to untreated control.
The subject of the next assay is Fusarium culmorum. The assay can be described thus: Fusarium culmorum (Foot Rot of Cereals) radial growth on potato dextrose agar. The note with it: 300 ppm; radial growth after seven days compared to untreated control. The format is cell-based. How it is done: Example 6: Fusarium culmorum (Foot Rot of Cereals)
Compounds were dissolved in 0.3% dimethyl sulfoxide and then added to potato dextrose agar medium just prior to dispensing it into petri dishes. 5 mL medium with the compound in the desired concentration was dispensed into 60 mm sterile petri-plates. After solidification each plate was seeded with a 5 mm size mycelial disc taken from the periphery of an actively growing virulent culture plate. Plates were incubated in growth chambers at 25° C. temperature and 60% relative humidity for seven days and then the radial growth was measured and compared to that of the untreated control.

For the next assay, the system named is Botrytis cinerea. The assay can be described thus: Botrytis cinerea (Gray Mold) radial growth on potato dextrose agar. It counts as cell-based. The note with it: 300 ppm; radial growth after seven days compared to untreated control.

For the molecule `COc1ccc(NCC(=O)c2ccc(-c3noc(C(F)(F)F)n3)cc2)cc1` [Compound 145, 2-((4-methoxyphenyl)amino)-1-(4-(5-(trifluoromethyl)-1,2,4-oxadiazol-3-yl)phenyl)ethan-1-one], the inhibition of growth at 300 ppm with Colletotrichum capsici and in the assay on Pyricularia oryzae was at least 70% in each case.
`O=C(COc1cc(Cl)cc(Cl)c1)c1ccc(-c2noc(C(F)(F)F)n2)cc1` [Compound 15, 2-(3,5-dichlorophenoxy)-1-(4-(5-(trifluoromethyl)-1,2,4-oxadiazol-3-yl)phenyl)ethan-1-one]: the inhibition of growth at 300 ppm in the assay on Colletotrichum capsici is at least 70%. In the assay on Phakopsora pachyrhizi, this molecule registered a pest or weed control at 500 ppm of at least 70%.
Regarding `O=C(CS(=O)(=O)c1nccs1)c1ccc(-c2noc(C(F)(F)F)n2)cc1` [Compound 107, 2-(thiazol-2-ylsulfonyl)-1-(4-(5-(trifluoromethyl)-1,2,4-oxadiazol-3-yl)phenyl)ethan-1-one], in the assay on Colletotrichum capsici, the inhibition of growth at 300 ppm is at least 70%.
`Cc1cccc(NCC(=O)c2ccc(-c3noc(C(F)(F)F)n3)cc2)c1` [Compound 144, 2-(m-tolylamino)-1-(4-(5-(trifluoromethyl)-1,2,4-oxadiazol-3-yl)phenyl)ethan-1-one]: the inhibition of growth at 300 ppm with Colletotrichum capsici is at least 70%.
In the case of `O=C(CS(=O)(=O)c1ccncc1)c1ccc(-c2noc(C(F)(F)F)n2)cc1` [Compound 112, 2-(pyridin-4-ylsulfonyl)-1-(4-(5-(trifluoromethyl)-1,2,4-oxadiazol-3-yl)phenyl)ethan-1-one], the inhibition of growth at 300 ppm with Alternaria solani and in the assay with Pyricularia oryzae was at least 70% throughout.
On to `O=C(C[S+]([O-])C1CCCC1)c1ccc(-c2noc(C(F)(F)F)n2)cn1` (stereo not shown) [Compound 133, 2-(cyclopentylsulfinyl)-1-(5-(5-(trifluoromethyl)-1,2,4-oxadiazol-3-yl)pyridin-2-yl)ethan-1-one], for which the inhibition of growth at 300 ppm in the assay with Alternaria solani and with Pyricularia oryzae was at least 70% throughout.
As to `O=C(CNc1ccc(Cl)c(C(F)(F)F)c1)c1ccc(-c2noc(C(F)(F)F)n2)cc1` [Compound 140, 2-((4-chloro-3-(trifluoromethyl)phenyl)amino)-1-(4-(5-(trifluoromethyl)-1,2,4-oxadiazol-3-yl)phenyl)ethan-1-one], the inhibition of growth at 300 ppm in the assay on Alternaria solani was at least 70%. For the same molecule, in the assay with Fusarium culmorum, the control is given as at least 70%.
Regarding `O=C(CSc1ncn[nH]1)c1ccc(-c2noc(C(F)(F)F)n2)cc1` [Compound 149, 2-((1H-1,2,4-triazol-5-yl)thio)-1-(4-(5-(trifluoromethyl)-1,2,4-oxadiazol-3-yl)phenyl)ethan-1-one], the inhibition of growth at 300 ppm in the assay on Colletotrichum capsici, in the assay on Alternaria solani and in the assay on Pyricularia oryzae was at least 70% throughout.
The molecule `COc1ccc([S+]([O-])CC(=O)c2ccc(-c3noc(C(F)(F)F)n3)cn2)cc1` (stereo not shown) [Compound 129, 2-((4-methoxyphenyl)sulfinyl)-1-(5-(5-(trifluoromethyl)-1,2,4-oxadiazol-3-yl)pyridin-2-yl)ethan-1-one] yielded an inhibition of growth at 300 ppm with Colletotrichum capsici of at least 70%.
As for `CC(C)(C)[S+]([O-])CC(=O)c1ccc(-c2noc(C(F)(F)F)n2)cc1` (stereo not shown) [Compound 91, 2-(tert-butylsulfinyl)-1-(4-(5-(trifluoromethyl)-1,2,4-oxadiazol-3-yl)phenyl)ethan-1-one], the inhibition of growth at 300 ppm in the assay on Alternaria solani and with Pyricularia oryzae was at least 70% in each case.
In the case of `CN1CCN(CC(=O)c2ccc(-c3noc(C(F)(F)F)n3)cc2)CC1` [Compound 135, 2-(4-methylpiperazin-1-yl)-1-(4-(5-(trifluoromethyl)-1,2,4-oxadiazol-3-yl)phenyl)ethan-1-one], the inhibition of growth at 300 ppm in the assay on Colletotrichum capsici and in the assay on Alternaria solani was at least 70% in each case. This molecule gave a pest or weed control at 500 ppm in the assay with Phakopsora pachyrhizi of at least 70%.
For `Cc1ccccc1NCC(=O)c1ccc(-c2noc(C(F)(F)F)n2)cc1` [Compound 146, 2-(o-tolylamino)-1-(4-(5-(trifluoromethyl)-1,2,4-oxadiazol-3-yl)phenyl)ethan-1-one], the inhibition of growth at 300 ppm with Colletotrichum capsici was at least 70%.
For `Cc1nnc(SCC(=O)c2ccc(-c3noc(C(F)(F)F)n3)cc2)o1` [Compound 150, 2-((5-methyl-1,3,4-oxadiazol-2-yl)thio)-1-(4-(5-(trifluoromethyl)-1,2,4-oxadiazol-3-yl)phenyl)ethan-1-one], the inhibition of growth at 300 ppm with Alternaria solani and in the assay with Pyricularia oryzae was at least 70% throughout.
Turning to `O=C(CSC1CCCC1)c1ccc(-c2noc(C(F)(F)F)n2)cn1` [Compound 119, 2-(cyclopentylthio)-1-(5-(5-(trifluoromethyl)-1,2,4-oxadiazol-3-yl)pyridin-2-yl)ethan-1-one], the inhibition of growth at 300 ppm in the assay on Alternaria solani and in the assay on Pyricularia oryzae was at least 70% each time.
Regarding `O=C(C[S+]([O-])Cc1ccccc1)c1ccc(-c2noc(C(F)(F)F)n2)cc1` (stereo not shown) [Compound 80, 2-(benzylsulfinyl)-1-(4-(5-(trifluoromethyl)-1,2,4-oxadiazol-3-yl)phenyl)ethan-1-one], the inhibition of growth at 300 ppm in the assay on Alternaria solani and with Pyricularia oryzae was at least 70% each time.
In the case of `O=C(COc1ccccc1F)c1ccc(-c2noc(C(F)(F)F)n2)cn1` [Compound 114, 2-(2-fluorophenoxy)-1-(5-(5-(trifluoromethyl)-1,2,4-oxadiazol-3-yl)pyridin-2-yl)ethan-1-one], the control with Botrytis cinerea is on record as at least 70%. For the same molecule, in the assay on Pyricularia oryzae, the inhibition of growth at 300 ppm was at least 70%.
In the case of `O=C(CNc1cccc(C(F)(F)F)c1)c1ccc(-c2noc(C(F)(F)F)n2)cc1` [Compound 141, 1-(4-(5-(trifluoromethyl)-1,2,4-oxadiazol-3-yl)phenyl)-2-((3-(trifluoromethyl)phenyl)amino)ethan-1-one], the inhibition of growth at 300 ppm with Colletotrichum capsici is at least 70%.

A word on the pest or weed control: it is the degree to which the test organism was suppressed or injured, in per cent.
